Data reported in patent publication US20250089717A1, “FUNGICIDAL HALOMETHYL KETONES, HYDRATES AND ENOL ETHERS AND THEIR MIXTURES” (FMC CORPORATION, priority 2023, published 2025).

tested on: Phakopsora pachyrhizi; assay: Test A: preventive spray on soybean seedlings, Asian soybean rust, visual disease rating; format: in vivo; settings: rate 10 ppm
From the text: General protocol for preparing test suspensions for Test A: the test compounds were first dissolved in acetone in an amount equal to 3% of the final volume and then suspended at the desired concentration (in ppm) in acetone and purified water (50/50 mix by volume) containing 250 ppm of the surfactant PEG400 (polyhydric alcohol esters). The resulting test suspensions were then used in Test A.
The test solution was sprayed to the point of run-off on soybean seedlings. The following day the seedlings were inoculated with a spore suspension of Phakopsora pachyrhizi (the causal agent of Asian soybean rust) and incubated in a saturated atmosphere at 22° C. for 24 h and then moved to a growth chamber at 22° C. for 8 days, after which time visual disease ratings were made.
A rating of 100 indicates 100% disease control and a rating of 0 indicates no disease control (relative to the controls).

Compound | Test A rating (100 = 100% disease control, 0 = no disease control relative to the controls) [%]
CCO/C(=C\Oc1ccc(Cn2cc(COC(=O)OC)cn2)c(F)c1F)C(F)(F)F [Compound 69] | 100
CCO/C(=C\Oc1ccc(Cn2cc(COC(=O)CC)cn2)c(F)c1F)C(F)(F)F [Compound 70] | 100
CCO/C(=C\Oc1ccc(Cn2cc(COC(=O)C3CC3)cn2)c(F)c1F)C(F)(F)F [Compound 71] | 100
CCO/C(=C\Oc1ccc(Cn2cc(COC(=O)C(C)(C)C)cn2)c(F)c1F)C(F)(F)F [Compound 72] | 100
CCO/C(=C\Oc1ccc(Cn2cc(COC(=O)C(C)(C)C)cn2)c(F)c1)C(F)(F)F [Compound 73] | 100
CCO/C(=C\Oc1ccc(Cn2cc(COC(=O)COC)cn2)c(F)c1F)C(F)(F)F [Compound 74] | 100
CCO/C(=C\Oc1ccc(Cn2cc(COC(=O)COC)cn2)c(F)c1)C(F)(F)F [Compound 75] | 100
CCO/C(=C\Oc1ccc(Cn2cc(COC(=O)C3CC3)cn2)c(F)c1)C(F)(F)F [Compound 76] | 100
CCO/C(=C\Oc1ccc(Cn2cc(COC(=O)CC)cn2)c(F)c1)C(F)(F)F [Compound 77] | 100
CCO/C(=C\Oc1ccc(Cn2cc(C(=O)NOCC#N)cn2)c(F)c1F)C(F)(F)F [Compound 78] | 100
CCO/C(=C\Oc1ccc(Cn2cc(C(=O)NOCC(F)(F)F)cn2)c(F)c1F)C(F)(F)F [Compound 79] | 100
CCO/C(=C\Oc1ccc(Cn2cc(C(=O)NOCC3CC3)cn2)c(F)c1F)C(F)(F)F [Compound 80] | 100
CCO/C(=C\Oc1ccc(Cn2cc(C(=O)NOCC#N)cn2)c(F)c1)C(F)(F)F [Compound 81] | 100
CCO/C(=C\Oc1ccc(Cn2cc(C(=O)NOCC3CC3)cn2)c(F)c1)C(F)(F)F [Compound 82] | 100
C=CCONC(=O)c1cn(Cc2ccc(O/C=C(\OCC)C(F)(F)F)cc2)nn1 [Compound 83] | 99
C=C=CC(=O)NCc1cnn(Cc2ccc(OCC3(C(F)(F)F)OCCO3)cc2)c1 [Compound 84] | 99
CCOC(=O)OCc1cnn(Cc2ccc(OCC3(C(F)(F)F)OCCO3)cc2)c1 [Compound 85] | 86
C#CCONC(=O)c1cccc(Cc2ccc(O/C=C(\OCC)C(F)(F)F)cc2)n1 [Compound 125, 2-[[4-1[[(1Z)-2-ethoxy-3,3,3-trifluoro-1-propen-1-yl]oxy]phenyl]methyl]-N-(2-propyn-1-yloxy)-6-pyridinecarboxamide] | 100
CCO/C(=C\Oc1ccc(Cc2cccc(C(=O)NOCC(F)(F)F)n2)cc1)C(F)(F)F [Compound 127, 2-[[4-1[[(1Z)-2-ethoxy-3,3,3-trifluoro-1-propen-1-yl]oxy]phenyl]methyl]-N-(2,2,2-trifluoroethoxy)-6-pyridinecarboxamide] | 99
C#CCONC(=O)c1cc(Cc2ccc(O/C=C(\OCC)C(F)(F)F)cc2)ccn1 [Compound 131, 4-[[4-1[[(1Z)-2-ethoxy-3,3,3-trifluoro-1-propen-1-yl]oxy]phenyl]methyl]-N-(2-propyn-1-yloxy)-2-pyridinecarboxamide] | 100
CCO/C(=C\Oc1ccc(Cc2ccnc(C(=O)NOCC3CC3)c2)cc1)C(F)(F)F [Compound 132, 4-[[4-1[[(1Z)-2-ethoxy-3,3,3-trifluoro-1-propen-1-yl]oxy]phenyl]methyl]-N-(cyclopropylmethoxy)-2-pyridinecarboxamide] | 100
CCO/C(=C\Oc1ccc(Cc2ccnc(C(=O)NOCC(F)(F)F)c2)cc1)C(F)(F)F [Compound 133, 4-[[4-1[[(1Z)-2-ethoxy-3,3,3-trifluoro-1-propen-1-yl]oxy]phenyl]methyl]-N-(2,2,2-trifluoroethoxy)-2-pyridinecarboxamide] | 100
CCO/C(=C\Oc1ccc(Cn2cc(CC(=O)OCC3CC3)cn2)cc1)C(F)(F)F [compound 13] | 96
C=CCOC(=O)Cc1cnn(Cc2ccc(O/C=C(\OCC)C(F)(F)F)cc2)c1 [compound 14] | 96
CCO/C(=C\Oc1ccc(Cn2cc(COC(=O)C(Cl)Cl)cn2)cc1)C(F)(F)F [compound 16] | 100
CCO/C(=C\Oc1ccc(Cn2cc(COC(=O)C(F)(F)Cl)cn2)cc1)C(F)(F)F [compound 19] | 100
CCO/C(=C\Oc1ccc(Cn2cc(CON(C(C)=O)C(C)=O)cn2)cc1)C(F)(F)F [compound 20] | 79
CCO/C(=C\Oc1ccc(Cn2cc(COC(=O)CC#N)cn2)cc1)C(F)(F)F [compound 24] | 100
CCO/C(=C\Oc1ccc(Cn2cc(C(=O)NOCC3CC3)cn2)cc1)C(F)(F)F [compound 25] | 100

same assay, conditions: rate 10 ppm, read-out: Test A rating (100 = 100% disease control, 0 = no disease control relative to the controls)

Compound | pest or weed control at 10 ppm [%]
C=CCON(C)C(=O)c1cccc(Cc2ccc(O/C=C(\OCC)C(F)(F)F)cc2)n1 [Compound 108, 2-[[4-[[(1Z)-2-ethoxy-3,3,3-trifluoro-1-propen-1-yl]oxy]phenyl]methyl]-N-methyl-N-(2-propen-1-yloxy)-6-pyridinecarboxamide] | 100
C=CCONC(=O)c1cccc(Cc2ccc(O/C=C(\OCC)C(F)(F)F)cc2)n1 [Compound 109, 2-[[4-[[(1Z)-2-ethoxy-3,3,3-trifluoro-1-propen-1-yl]oxy]phenyl]methyl]-N-(2-propen-1-yloxy)-6-pyridinecarboxamide] | 100
C=CCON(CC)C(=O)c1cc(Cc2ccc(O/C=C(\OCC)C(F)(F)F)cc2)ccn1 [Compound 119, 4-[[4-[[(1Z)-2-ethoxy-3,3,3-trifluoro-1-propen-1-yl]oxy]phenyl]methyl]-N-ethyl-N-(2-propen-1-yloxy)-2-pyridinecarboxamide] | 100
CCO/C(=C\Oc1ccc(Cc2cccc(C(=O)N(C)OCC(F)(F)F)n2)cc1)C(F)(F)F [Compound 120, 2-[[4-[[(1Z)-2-ethoxy-3,3,3-trifluoro-1-propen-1-yl]oxy]phenyl]methyl]-N-(2,2,2-trifluoroethoxy)-N-methyl-6-pyridinecarboxamide] | 100
C#CCON(C)C(=O)c1cccc(Cc2ccc(O/C=C(\OCC)C(F)(F)F)cc2)n1 [Compound 121, 2-[[4-[[(1Z)-2-ethoxy-3,3,3-trifluoro-1-propen-1-yl]oxy]phenyl]methyl]-N-methyl-N-(2-propyn-1-yloxy)-6-pyridinecarboxamide] | 100
CCO/C(=C\Oc1ccc(Cc2cccc(C(=O)N(C)OCC3CC3)n2)cc1)C(F)(F)F [Compound 123, 2-[[4-[[(1Z)-2-ethoxy-3,3,3-trifluoro-1-propen-1-yl]oxy]phenyl]methyl]-N-(cyclopropylmethoxy)-N-methyl-6-pyridinecarboxamide] | 100
CCO/C(=C\Oc1ccc(Cc2cccc(C(=O)NOCC3CC3)n2)cc1)C(F)(F)F [Compound 124, 2-[[4-[[(1Z)-2-ethoxy-3,3,3-trifluoro-1-propen-1-yl]oxy]phenyl]methyl]-N-(cyclopropylmethoxy)-6-pyridinecarboxamide] | 100

same assay, conditions: rate 50 ppm

Compound | Test A rating (100 = 100% disease control, 0 = no disease control relative to the controls) [%]
COCC(=O)OCc1cnn(Cc2ccc(OCC3(C(F)(F)F)OCCO3)cc2)c1 [Compound 86] | 100
COCCC(=O)OCc1cnn(Cc2ccc(OCC3(C(F)(F)F)OCCO3)cc2)c1 [Compound 87] | 100
O=C(CC1CC1)OCc1cnn(Cc2ccc(OCC3(C(F)(F)F)OCCO3)cc2)c1 [Compound 88] | 100
C=CCC(=O)OCc1cnn(Cc2ccc(OCC3(C(F)(F)F)OCCO3)cc2)c1 [Compound 89] | 100
CC(=O)OCc1cnn(Cc2ccc(OCC3(C(F)(F)F)OCCO3)cc2)c1 [Compound 90] | 100
CCOC(=O)C(=O)OCc1cnn(Cc2ccc(OCC3(C(F)(F)F)OCCO3)cc2)c1 [Compound 91] | 100
CC(C)CC(=O)OCc1cnn(Cc2ccc(OCC3(C(F)(F)F)OCCO3)cc2)c1 [Compound 92] | 100
O=C(CC(F)(F)F)OCc1cnn(Cc2ccc(OCC3(C(F)(F)F)OCCO3)cc2)c1 [Compound 93] | 100
C#CCOCc1cnn(Cc2ccc(OCC3(C(F)(F)F)OCCO3)cc2)c1 [Compound 94] | 100
CCO/C(=C\Oc1ccc(Cn2cc(COC(=O)N(C)C)cn2)cc1)C(F)(F)F [compound 8] | 60
CCO/C(=C\Oc1ccc(Cn2cc(COC(=O)NC)cn2)cc1)C(F)(F)F [compound 15] | 100
